{"source": "ChEMBL document CHEMBL4507295", "about": "(2021)", "key": {"[1]": {"target": "Tyrosine-protein kinase Blk (Homo sapiens) (UniProt P51451)", "settings": "Compound concentration 1000.0 nM; call rule not given here"}, "[2]": {"target": "voltage-gated sodium channel, site 2 (Rattus norvegicus, UniProt F1LQQ7+O08562+O88420+O88457+P04774+P04775+P08104+P15389+P15390+Q62968)", "assay": "Inhibition of Sodium Channel, Site 2 at 10 µM in the Eurofins-Panlabs radioligand binding assay (Eurofins_assay_279510)", "type": "protein assay", "design": "ligand concentration 5 nM, non-specific ligand with concentration 100 µM Veratridine, incubation time 60 min, incubation temperature 37 °C", "settings": "male, Wistar, rat whole brain (except cerebellum) membranes, probe [3H] Batrachotoxinin (radioligand, 5 nM), compound concentration 10 uM"}, "[3]": {"target": "C-X-C chemokine receptor type 2 (Homo sapiens) (UniProt P25025)", "assay": "Inhibition of Chemokine CXCR2 (IL-8RB) at 10 µM in the Eurofins-Panlabs radioligand binding assay (Eurofins_assay_244500)", "settings": "Compound concentration 10.0 uM"}, "[4]": {"target": "T1, 5-hydroxytryptamine receptor 3A (Homo sapiens) (UniProt P46098)", "T1 sequence (whole entry)": "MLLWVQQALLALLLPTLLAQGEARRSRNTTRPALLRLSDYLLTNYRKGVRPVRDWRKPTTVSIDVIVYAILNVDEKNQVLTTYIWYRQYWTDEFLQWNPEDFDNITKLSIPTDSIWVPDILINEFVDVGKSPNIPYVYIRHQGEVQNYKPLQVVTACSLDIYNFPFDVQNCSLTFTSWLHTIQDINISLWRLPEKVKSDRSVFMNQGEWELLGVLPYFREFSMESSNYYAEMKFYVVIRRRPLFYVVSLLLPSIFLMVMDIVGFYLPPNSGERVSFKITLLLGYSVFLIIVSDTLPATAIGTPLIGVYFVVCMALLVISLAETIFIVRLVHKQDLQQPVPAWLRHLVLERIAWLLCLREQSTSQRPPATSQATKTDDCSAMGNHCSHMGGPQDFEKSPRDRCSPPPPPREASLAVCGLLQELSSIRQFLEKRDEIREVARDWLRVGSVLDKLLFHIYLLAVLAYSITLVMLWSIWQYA", "assay": "Inhibition of Serotonin (5-Hydroxytryptamine) 5-HT3 at 10 µM in the Eurofins-Panlabs radioligand binding assay (Eurofins_assay_271910)", "design": "ligand concentration 0.69 nM", "settings": "Compound concentration 10.0 uM"}, "Bos taurus": {"organism": "Bos taurus", "assay": "Protein Serine/Threonine Kinase, PKA, Non-Selective Eurofins-Panlabs enzyme assay", "type": "protein-complex assay", "design": "substrate with concentration 370 µg/mL Histone Type III-S, incubation time 15 min, incubation temperature 25 °C", "settings": "Compound concentration 100.0 uM"}, "[5]": {"target": "Nociceptin receptor (Homo sapiens) (UniProt P41146)", "sequence (P41146 whole entry)": "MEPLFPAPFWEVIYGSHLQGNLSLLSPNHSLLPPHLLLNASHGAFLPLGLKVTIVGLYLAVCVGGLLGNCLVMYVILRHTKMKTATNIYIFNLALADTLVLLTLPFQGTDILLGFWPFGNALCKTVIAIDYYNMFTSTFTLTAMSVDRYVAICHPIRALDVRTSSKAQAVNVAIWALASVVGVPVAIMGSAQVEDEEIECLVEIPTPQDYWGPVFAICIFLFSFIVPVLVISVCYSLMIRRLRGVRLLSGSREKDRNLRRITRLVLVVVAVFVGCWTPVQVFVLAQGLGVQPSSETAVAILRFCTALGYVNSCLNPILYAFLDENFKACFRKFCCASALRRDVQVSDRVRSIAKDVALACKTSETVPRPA", "assay": "Orphanin ORL1 Eurofins-Panlabs radioligand binding assay", "settings": "Compound concentration 10.0 uM"}, "[6]": {"target": "Neutrophil elastase (Homo sapiens) (UniProt P08246)", "assay": "Peptidase, ELA2 (Neutrophil Elastase 2) Eurofins-Panlabs enzyme assay", "settings": "Compound concentration 10.0 uM"}, "[7]": {"target": "Neprilysin (Homo sapiens) (UniProt P08473)", "assay": "Peptidase, Metalloproteinase, Neutral Endopeptidase Eurofins-Panlabs enzyme assay", "settings": "Compound concentration 10.0 uM"}, "Homo sapiens [8]": {"organism": "Homo sapiens", "assay": "Protein Serine/Threonine Kinase, MAPK14 (p38α) Eurofins-Panlabs enzyme assay", "design": "substrate with concentration 10 µg/mL Myelin Basic Protein (MBP), incubation time 60 min, incubation temperature 25 °C", "settings": "Compound concentration 10.0 uM"}, "Homo sapiens [9]": {"organism": "Homo sapiens", "assay": "Estrogen ERbeta Eurofins-Panlabs radioligand binding assay", "settings": "Compound concentration 10.0 uM"}, "[10]": {"target": "Galanin receptor type 1 (Homo sapiens) (UniProt P47211)", "assay": "Galanin GAL1 Eurofins-Panlabs radioligand binding assay", "settings": "Compound concentration 10.0 uM"}, "[11]": {"target": "Inositol 1,4,5-trisphosphate-gated calcium channel ITPR1 (Homo sapiens) (UniProt Q14643)", "sequence (Q14643 whole entry)": "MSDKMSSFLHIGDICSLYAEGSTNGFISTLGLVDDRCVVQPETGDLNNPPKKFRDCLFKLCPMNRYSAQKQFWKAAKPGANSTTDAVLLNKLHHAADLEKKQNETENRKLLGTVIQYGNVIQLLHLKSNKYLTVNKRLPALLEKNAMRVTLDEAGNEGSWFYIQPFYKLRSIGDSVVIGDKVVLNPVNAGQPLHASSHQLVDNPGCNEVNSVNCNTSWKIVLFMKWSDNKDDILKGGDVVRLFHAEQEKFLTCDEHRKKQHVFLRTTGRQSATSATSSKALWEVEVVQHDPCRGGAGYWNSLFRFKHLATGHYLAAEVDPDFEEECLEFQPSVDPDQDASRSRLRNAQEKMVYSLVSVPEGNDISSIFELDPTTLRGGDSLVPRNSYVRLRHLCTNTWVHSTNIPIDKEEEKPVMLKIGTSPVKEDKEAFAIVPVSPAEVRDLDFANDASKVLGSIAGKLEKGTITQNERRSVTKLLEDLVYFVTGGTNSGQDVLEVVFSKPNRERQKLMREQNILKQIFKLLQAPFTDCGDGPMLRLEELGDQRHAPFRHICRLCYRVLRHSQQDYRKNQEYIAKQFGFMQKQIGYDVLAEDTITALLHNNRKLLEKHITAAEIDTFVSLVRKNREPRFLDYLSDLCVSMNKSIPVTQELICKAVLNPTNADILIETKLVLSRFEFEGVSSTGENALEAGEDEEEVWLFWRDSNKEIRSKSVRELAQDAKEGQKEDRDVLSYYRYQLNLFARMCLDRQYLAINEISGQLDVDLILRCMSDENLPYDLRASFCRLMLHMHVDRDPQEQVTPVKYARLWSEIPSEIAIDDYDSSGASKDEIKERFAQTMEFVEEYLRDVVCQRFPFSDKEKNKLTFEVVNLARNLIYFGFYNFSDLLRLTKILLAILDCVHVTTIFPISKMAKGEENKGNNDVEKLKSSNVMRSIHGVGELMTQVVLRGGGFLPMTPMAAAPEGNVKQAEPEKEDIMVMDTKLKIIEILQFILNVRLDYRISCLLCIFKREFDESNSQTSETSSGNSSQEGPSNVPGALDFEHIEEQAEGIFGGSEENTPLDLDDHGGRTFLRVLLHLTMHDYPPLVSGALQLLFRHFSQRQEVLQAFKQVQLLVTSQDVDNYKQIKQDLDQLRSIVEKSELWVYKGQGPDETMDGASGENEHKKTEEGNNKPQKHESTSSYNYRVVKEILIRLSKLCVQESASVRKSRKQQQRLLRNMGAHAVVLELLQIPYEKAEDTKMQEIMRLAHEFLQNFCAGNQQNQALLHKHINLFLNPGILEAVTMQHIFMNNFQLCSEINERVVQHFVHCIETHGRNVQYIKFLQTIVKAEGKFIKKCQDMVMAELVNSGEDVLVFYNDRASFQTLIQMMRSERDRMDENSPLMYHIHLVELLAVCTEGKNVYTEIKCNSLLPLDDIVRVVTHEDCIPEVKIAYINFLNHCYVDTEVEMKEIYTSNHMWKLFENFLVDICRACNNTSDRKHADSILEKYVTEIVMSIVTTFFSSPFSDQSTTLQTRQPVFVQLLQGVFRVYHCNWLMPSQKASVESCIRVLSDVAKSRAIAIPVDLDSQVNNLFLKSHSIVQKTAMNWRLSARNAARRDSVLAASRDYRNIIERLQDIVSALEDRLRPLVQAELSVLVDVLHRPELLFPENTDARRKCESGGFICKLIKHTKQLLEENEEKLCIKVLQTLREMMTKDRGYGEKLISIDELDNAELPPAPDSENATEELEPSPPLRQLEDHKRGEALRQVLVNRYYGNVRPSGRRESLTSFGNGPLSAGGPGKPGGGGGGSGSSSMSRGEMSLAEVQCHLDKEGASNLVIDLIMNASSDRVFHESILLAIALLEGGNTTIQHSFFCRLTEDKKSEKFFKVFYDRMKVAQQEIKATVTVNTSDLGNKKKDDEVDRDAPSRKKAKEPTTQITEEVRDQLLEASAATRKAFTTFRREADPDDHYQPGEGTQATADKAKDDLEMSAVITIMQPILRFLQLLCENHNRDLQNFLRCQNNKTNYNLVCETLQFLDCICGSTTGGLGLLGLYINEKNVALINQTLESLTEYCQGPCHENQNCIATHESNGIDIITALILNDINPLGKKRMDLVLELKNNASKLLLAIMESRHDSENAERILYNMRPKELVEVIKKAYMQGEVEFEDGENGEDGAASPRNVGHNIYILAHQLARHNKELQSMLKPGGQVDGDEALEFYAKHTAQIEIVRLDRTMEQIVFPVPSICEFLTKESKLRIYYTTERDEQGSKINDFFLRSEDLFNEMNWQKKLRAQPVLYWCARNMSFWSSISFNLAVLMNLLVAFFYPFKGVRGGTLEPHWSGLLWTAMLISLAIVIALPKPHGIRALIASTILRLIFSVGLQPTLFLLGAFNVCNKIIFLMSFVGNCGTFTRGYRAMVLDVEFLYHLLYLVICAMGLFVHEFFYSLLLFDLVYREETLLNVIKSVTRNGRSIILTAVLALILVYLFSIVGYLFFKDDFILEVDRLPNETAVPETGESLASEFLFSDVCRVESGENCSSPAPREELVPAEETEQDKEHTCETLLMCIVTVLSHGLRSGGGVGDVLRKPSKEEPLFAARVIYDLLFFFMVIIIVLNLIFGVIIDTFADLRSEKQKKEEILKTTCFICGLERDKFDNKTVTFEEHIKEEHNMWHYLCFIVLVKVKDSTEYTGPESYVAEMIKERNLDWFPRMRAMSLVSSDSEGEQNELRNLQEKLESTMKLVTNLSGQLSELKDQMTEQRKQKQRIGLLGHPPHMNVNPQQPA", "assay": "Inositol Trisphosphate IP3 Eurofins-Panlabs radioligand binding assay", "settings": "Rattus norvegicus; Compound concentration 10.0 uM"}, "[12]": {"target": "Oxytocin receptor (Homo sapiens) (UniProt P30559)", "sequence (P30559 whole entry)": "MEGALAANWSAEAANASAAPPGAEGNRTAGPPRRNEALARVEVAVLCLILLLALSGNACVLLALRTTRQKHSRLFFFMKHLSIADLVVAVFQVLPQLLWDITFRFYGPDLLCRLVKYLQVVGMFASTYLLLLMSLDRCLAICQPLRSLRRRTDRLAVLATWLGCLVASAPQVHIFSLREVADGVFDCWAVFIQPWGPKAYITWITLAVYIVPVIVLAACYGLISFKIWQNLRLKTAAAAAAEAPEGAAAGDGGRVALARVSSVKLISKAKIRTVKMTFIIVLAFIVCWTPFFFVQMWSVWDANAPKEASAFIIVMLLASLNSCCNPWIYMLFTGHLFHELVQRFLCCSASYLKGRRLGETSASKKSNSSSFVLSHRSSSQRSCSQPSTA", "assay": "Oxytocin Eurofins-Panlabs radioligand binding assay", "settings": "Compound concentration 10.0 uM"}, "[13]": {"target": "Prostaglandin E2 receptor EP4 subtype (Homo sapiens) (UniProt P35408)", "assay": "Prostanoid EP4 Eurofins-Panlabs radioligand binding assay", "design": "ligand concentration 0.5 nM", "settings": "Compound concentration 10.0 uM"}, "Homo sapiens [14]": {"organism": "Homo sapiens", "assay": "Prostanoid, Thromboxane A2 (TP) Eurofins-Panlabs radioligand binding assay", "design": "ligand concentration 5 nM, non-specific ligand with concentration 1 µM SQ-29548, incubation time 30 min, incubation temperature 25 °C", "settings": "Compound concentration 10.0 uM"}, "[15]": {"target": "Tyrosine-protein phosphatase non-receptor type 2 (Homo sapiens, UniProt P17706)", "assay": "Panlabs assay", "design": "compound concentration 10 uM"}, "[16]": {"target": "GABA-A receptor; alpha-5/beta-3/gamma-2 (Homo sapiens) (UniProt P18507+P28472+P31644)", "assay": "GABA-alpha5beta3gamma2 (Muscimol binding) Eurofins-Panlabs radioligand binding assay", "type": "protein-complex assay", "design": "ligand concentration 8 nM", "settings": "Compound concentration 10.0 uM"}, "[17]": {"target": "Glutamate (NMDA/AMPA/Kainate) (Rattus norvegicus) (UniProt P35439+Q00959+Q00960+Q00961+Q62645+Q8VHN2+Q9R1M7+P22756+Q9ULK0+Q01812+P19491+P19492+P19493+P42260+P42264+P19490+Q63273+O43424)", "assay": "Glutamate, Non-Selective Eurofins-Panlabs radioligand binding assay", "type": "protein-complex assay", "design": "ligand concentration 3.75 nM", "settings": "Compound concentration 10.0 uM"}, "[18]": {"target": "hERG (KCNH2) potassium channel (Homo sapiens, UniProt Q12809)", "sequence (Q12809 whole entry)": "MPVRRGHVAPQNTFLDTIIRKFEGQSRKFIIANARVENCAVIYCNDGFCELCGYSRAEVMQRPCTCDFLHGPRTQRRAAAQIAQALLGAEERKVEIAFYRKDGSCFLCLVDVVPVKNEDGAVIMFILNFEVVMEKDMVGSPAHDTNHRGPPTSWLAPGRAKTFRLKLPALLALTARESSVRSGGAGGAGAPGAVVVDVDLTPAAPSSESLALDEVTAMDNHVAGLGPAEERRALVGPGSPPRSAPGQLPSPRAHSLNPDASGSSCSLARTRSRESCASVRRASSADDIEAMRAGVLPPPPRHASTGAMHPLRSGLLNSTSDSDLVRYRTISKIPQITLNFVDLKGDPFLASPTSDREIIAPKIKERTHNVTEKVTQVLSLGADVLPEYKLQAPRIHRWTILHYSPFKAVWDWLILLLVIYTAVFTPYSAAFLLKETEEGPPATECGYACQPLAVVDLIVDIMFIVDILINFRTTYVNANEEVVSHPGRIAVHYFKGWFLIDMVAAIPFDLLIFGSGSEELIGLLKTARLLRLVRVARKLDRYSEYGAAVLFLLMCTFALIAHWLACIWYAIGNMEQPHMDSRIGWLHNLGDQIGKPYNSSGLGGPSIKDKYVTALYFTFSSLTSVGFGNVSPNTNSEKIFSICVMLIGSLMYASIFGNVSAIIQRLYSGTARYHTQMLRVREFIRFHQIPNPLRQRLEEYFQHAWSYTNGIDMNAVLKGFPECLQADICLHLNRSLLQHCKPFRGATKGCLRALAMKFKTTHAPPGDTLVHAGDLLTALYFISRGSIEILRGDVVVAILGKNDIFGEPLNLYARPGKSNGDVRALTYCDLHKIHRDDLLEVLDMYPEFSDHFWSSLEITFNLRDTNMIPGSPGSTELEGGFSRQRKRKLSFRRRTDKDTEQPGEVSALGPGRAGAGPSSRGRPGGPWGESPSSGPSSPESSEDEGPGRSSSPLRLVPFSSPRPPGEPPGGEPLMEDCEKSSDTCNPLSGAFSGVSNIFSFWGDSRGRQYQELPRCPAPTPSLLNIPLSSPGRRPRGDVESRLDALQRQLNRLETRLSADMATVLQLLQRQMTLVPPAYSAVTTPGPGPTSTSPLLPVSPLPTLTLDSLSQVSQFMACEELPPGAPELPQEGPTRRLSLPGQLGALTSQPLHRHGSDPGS", "assay": "Potassium Channel hERG Eurofins-Panlabs radioligand binding assay", "design": "ligand concentration 0.05 nM, non-specific ligand with concentration 1 µM L-706,000, incubation time 75 min, incubation temperature 25 °C", "settings": "HEK-293 cells expressing recombinant human hERG, probe [S35] L-706,000 (radioligand, 0.05 nM), compound concentration 10 uM"}, "[19]": {"target": "Adenosine receptor A3 (Homo sapiens) (UniProt P0DMS8)", "settings": "Compound concentration 10.0 uM"}, "[20]": {"target": "D(1A) dopamine receptor (Homo sapiens) (UniProt P21728)", "sequence (P21728 whole entry)": "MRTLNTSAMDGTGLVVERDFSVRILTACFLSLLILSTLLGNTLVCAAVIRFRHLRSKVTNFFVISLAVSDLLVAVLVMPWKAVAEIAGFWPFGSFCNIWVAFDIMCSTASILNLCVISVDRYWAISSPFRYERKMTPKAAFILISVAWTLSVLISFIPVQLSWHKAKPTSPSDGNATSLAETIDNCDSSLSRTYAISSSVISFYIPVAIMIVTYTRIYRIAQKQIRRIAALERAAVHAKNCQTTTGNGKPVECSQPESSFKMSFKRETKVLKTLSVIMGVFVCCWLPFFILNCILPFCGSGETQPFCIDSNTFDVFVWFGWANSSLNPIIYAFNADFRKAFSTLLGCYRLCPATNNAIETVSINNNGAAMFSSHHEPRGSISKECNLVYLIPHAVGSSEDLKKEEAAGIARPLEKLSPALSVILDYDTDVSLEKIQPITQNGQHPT", "settings": "Compound concentration 10.0 uM"}, "[21]": {"target": "D(3) dopamine receptor (Homo sapiens) (UniProt P35462)", "settings": "Compound concentration 10.0 uM"}, "[22]": {"target": "Endothelin receptor type B (Homo sapiens) (UniProt P24530)", "settings": "Compound concentration 10.0 uM"}, "[23]": {"target": "Histamine H2 receptor (Homo sapiens) (UniProt P25021)", "settings": "Compound concentration 10.0 uM"}, "[24]": {"target": "Muscarinic acetylcholine receptor M2 (Homo sapiens) (UniProt P08172)", "settings": "Compound concentration 10.0 uM"}, "[25]": {"target": "Acetylcholinesterase (Homo sapiens) (UniProt P22303)", "settings": "Compound concentration 10.0 uM"}, "[26]": {"target": "T2, Alpha-2B adrenergic receptor (Homo sapiens) (UniProt P18089)", "T2 sequence (whole entry)": "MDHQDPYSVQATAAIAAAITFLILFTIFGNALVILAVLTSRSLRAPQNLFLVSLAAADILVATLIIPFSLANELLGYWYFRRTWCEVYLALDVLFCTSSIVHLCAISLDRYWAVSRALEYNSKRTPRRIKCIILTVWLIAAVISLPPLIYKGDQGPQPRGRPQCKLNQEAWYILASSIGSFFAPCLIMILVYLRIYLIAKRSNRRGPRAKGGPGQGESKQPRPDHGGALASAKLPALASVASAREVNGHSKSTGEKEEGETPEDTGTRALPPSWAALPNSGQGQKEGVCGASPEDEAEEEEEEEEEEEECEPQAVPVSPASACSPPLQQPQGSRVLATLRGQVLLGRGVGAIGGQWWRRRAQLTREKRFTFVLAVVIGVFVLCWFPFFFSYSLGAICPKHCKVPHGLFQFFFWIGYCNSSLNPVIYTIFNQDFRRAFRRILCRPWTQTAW", "settings": "Compound concentration 10.0 uM"}, "Homo sapiens [27]": {"organism": "Homo sapiens", "settings": "Compound concentration 10.0 uM"}}, "data": [{"molecule": "N#CC1(c2ccccn2)CCN(Cc2cc(C(=O)N3CCCC3)c(=O)n3ccccc23)CC1", "values": [{"measurement": "residual activity", "setting": "[1]", "result": 73, "unit": "%"}]}, {"molecule": "N#CC1(c2ccccn2)CCN(Cc2cc(C(=O)O)c(=O)n3ccccc23)CC1", "note": "[MSD-M1PAM]", "values": [{"measurement": "inhibition at 60 min, 10 µM", "setting": "[2]", "result": "4% (not active)"}, {"measurement": "inhibition", "setting": "[3]", "result": 0, "unit": "%"}, {"measurement": "inhibition", "setting": "[4]", "result": 17, "unit": "%"}, {"measurement": "inhibition", "setting": "Bos taurus", "result": 24, "unit": "%"}, {"measurement": "inhibition", "setting": "[5]", "result": 14, "unit": "%"}, {"measurement": "inhibition", "setting": "[6]", "result": 9, "unit": "%"}, {"measurement": "inhibition", "setting": "[7]", "result": 3, "unit": "%"}, {"measurement": "inhibition", "setting": "Homo sapiens [8]", "result": -3, "unit": "%"}, {"measurement": "inhibition", "setting": "Homo sapiens [9]", "result": 8, "unit": "%"}, {"measurement": "inhibition", "setting": "[10]", "result": 2, "unit": "%"}, {"measurement": "inhibition", "setting": "[11]", "result": -3, "unit": "%"}, {"measurement": "inhibition", "setting": "[12]", "result": -5, "unit": "%"}, {"measurement": "inhibition", "setting": "[13]", "result": -4, "unit": "%"}, {"measurement": "inhibition", "setting": "Homo sapiens [14]", "result": 21, "unit": "%"}, {"measurement": "IC50", "setting": "[15]", "result": "10 µM (not active)"}, {"measurement": "inhibition", "setting": "[16]", "result": 11, "unit": "%"}, {"measurement": "inhibition", "setting": "[17]", "result": 8, "unit": "%"}, {"measurement": "inhibition at 75 min, 10 µM", "setting": "[18]", "result": "5% (not active)"}, {"measurement": "inhibition", "setting": "[19]", "result": -3, "unit": "%"}, {"measurement": "inhibition", "setting": "[20]", "result": 6, "unit": "%"}, {"measurement": "inhibition", "setting": "[21]", "result": -9, "unit": "%"}, {"measurement": "inhibition", "setting": "[22]", "result": -10, "unit": "%"}, {"measurement": "inhibition", "setting": "[23]", "result": -3, "unit": "%"}, {"measurement": "inhibition", "setting": "[24]", "result": 2, "unit": "%"}, {"measurement": "inhibition", "setting": "[25]", "result": 1, "unit": "%"}, {"measurement": "inhibition", "setting": "[26]", "result": -8, "unit": "%"}, {"measurement": "inhibition", "setting": "Homo sapiens [27]", "result": 0, "unit": "%"}]}]}
